Laboratory results as given in PMC8546421, “Molecular modelling of the FOXO4-TP53 interaction to design senolytic peptides for the elimination of senescent cancer cells” (EBioMedicine, 2021).
pIC50: −log10 of the molar value. “Also recorded” adds a separate entry of the source. Where no end group is shown, it is not given here.

Legend:
[1] = tested on: A375, B16F10, HCT116, MCF7, IMR90 and MCF10A cells; test: ES2 viability (MTS) in cell line panel, senescent vs dividing; assay type: cell-based
Description: (§1) Cell lines were treated with chemotherapy, doxorubicin (Sigma, Cat. No. 2252) to induce senescence (200 nM for HCT116, 100 nM for B16-F10 and MCF7, 50 nM for SW480 and DLD-1, 40 nM for A375-Luc/iRFP and MCF10a). MCF7 cells were treated with CDK4/6 inhibitor, palbociclib (Selleck Chemicals: S1116) to induce senescence (5 µM). A375 cells were treated with Braf inhibitor, Dabrafenib (Selleck Chemicals: S2807), to induce senescence (10 µM). Peptide efficacy experiments were performed by seeding 10,000 – 20,000 cells in a 96-well plate. The cells were given doxorubicin twice to make the cells senescent. After removal of doxorubicin, the plate was treated with varying concentrations of peptide. The peptide was replenished daily for two days. Cellular proliferation was quantified using the Promega CellTiter 96™ AQueous One Solution Cell Proliferation Assay (MTS) after 2 hours according to the manufacturer's protocol (Promega, G3581). To control for the charge of ES2, ProteoJuice (Millipore Sigma, 71281) was used to deliver ES2 using the manufacturers protocol, except 50 µL of 2 mM ES2 was mixed with 25 µL of ProteoJuice. Varying concentrations of the mixture were administered to A375 cells along with a control of only ProteoJuice.

[2] = Systemic delivery to aged mice, blood counts, weight, plasma urea; assay type: in vivo, mouse
senescent A375 cells = test: Peptide efficacy in culture (MTS), senescent cells; assay type: cell-based, human
Description: as §1

[3] = tested on: dividing A375 human melanoma cells; test: Survival study, orthotopic A375 xenograft; assay type: in vivo, mouse; details: local injection once daily for two days
Description: Mice were aged between 3-8 months and 20-30 g in weight and were housed in specific pathogen free cages. Animals were randomly distributed among treatment groups by assigning mice within the same cage to different treatment regimens. To minimise confounders, mouse treatment order was randomised within each cage. Male and female mice were distributed between all treatment groups since the chemicals used were directly injected and are not metabolized. Researchers were not blinded to the group allocation, but all attempts were made to analyse the data without knowing treatment conditions. NOD.Cg-Prkdcscid Il2rgtm1Wjl/SzJ (NSG) were purchased from The Jackson Laboratory (IMSR Cat# JAX:005557, RRID:IMSR_JAX:005557). NOD.Cg-KitW-41J Tyr + Prkdcscid Il2rgtm1Wjl/ThomJ (NBSGW) were purchased from The Jackson Laboratory (IMSR Cat# JAX:026622, RRID:IMSR_JAX:026622). Immunocompromised mice used for these experiments were all in the NSG background; however, some mice were F1 generation of NSG x NBSGW, thus the brown coat colour as NBSGW mice have tyrosinase. Xenografts containing senescent cells were established by injecting A375-Luc/iRFP human melanoma cells which contained a luciferase expressing gene into immunocompromised NSG ears. Senescence was induced in the cells via doxorubicin treatment (40 nM) then resuspended in DMEM prior to injection. Each ear was then injected with 50 µL containing approximately 1,000,000 cells. The ears were treated once daily for two days with 50 µL of either 5 mg/mL peptide, or saline. To control for confounders, each mouse contained one ear treated with saline (control). For imaging, mice were injected with 3 mg luciferin intravenously and imaged before and after treatment. Transgenic mice (BrafCA, PtenloxP, Tyr::CreERT2) were purchased from The Jackson Laboratory (IMSR Cat# JAX:013590, RRID:IMSR_JAX:013590). These mice were maintained on a C57Bl6 background and all experimental mice contained Tyr::CreER with either Braf^CA/+, Pten^fx/+; Braf^CA/CA, Pten^fx/+, or Braf^CA/+, Pten^fx/fx. […] Hypopigmented melanomas sporadically formed over the next 3-5 months, typically on the back of the mouse. These melanomas were then directly injected with 100 µL of either 20 mg/mL ES2+10%DMSO, saline+10%DMSO, saline+10%Dabrafenib, or 20 mg/mL ES2+10%Dabrafenib. The researchers were not blinded to the experiment, but each mouse contained an internal control and all imaging was done with the same exposure times based upon control tissue. For survival analyses, either 750,000 or 25,000 A375-Luc/iRFP cells were injected intradermally into NSG mice. […] Mice were then monitored daily and allowed to age until a humane endpoint was reached according to our IACUC protocol, which in this case was tumours of 2 cm in size. […]

[4] = aged mice (82 weeks), 3 mg ES2 via tail vein weekly for three weeks, n=5

PRKGGRRRRAWGRRRRRRRRRRRRRRAPRKRLTLA [ES2]
concentration of ES2 resulting in cell death, doxorubicin vs other pro-senescence agents ([1]; A375 with Dabrafenib, MCF7 with Palbociclib): no difference in concentration of ES2 resulting in cell death
IC50 in dividing cells relative to senescent cells ([1]; doxorubicin-induced senescence, all cell lines): at least 3 times
change in weight of the mice [2, 4]: no significant change
changes in numbers of white blood cells, platelets, or red blood cells [2, 4]: non-significant changes
toxicity after multiple doses ([2]; aged mice, 3 weekly i.v. doses): minimal toxicity
plasma urea levels ([2]; aged mice, endpoint, n=5): while not significant, were reduced
cell death (senescent A375 cells; A375 cells, ProteoJuice control experiment, highest concentration): 80%
effect of delivery with ProteoJuice on senolytic activity (senescent A375 cells; ES2 delivered with ProteoJuice vs ES2 alone, senescent A375 cells, n=5): had no effect on viability in senescent cells compared to ES2 alone; also recorded: no difference in senolytic activity
pIC50 (senescent A375 cells; doxorubicin (40 nM)-induced senescent A375 cells, peptide replenished daily for two days, MTS, best fit polynomial, read-out: IC50^sen, concentration to kill 50% of senescent cells): ~5.15
senolytic activity (in words) (senescent A375 cells; senescent vs dividing A375 cells): highest senolytic activity
effect on survival time, in words ([3]; 25,000 A375 cells): no effect on survival time
effect on survival time, in words ([3]; 750,000 A375 cells): did not alter survival times
